Data as given in PMC10591299, “Targeting SHP2 with an Active Site Inhibitor Blocks Signaling and Breast Cancer Cell Phenotypes” (ACS Bio & Med Chem Au, 2023).
Read-outs that look alike come from different tables or passages of the source.

Test system: BT474 cells
Assay: Basal pAkt and pERK1/2 signaling by immunoblotting in BT474 cells
Format: cell-based
Conditions: Homo sapiens, BT-474
Procedure: Since SHP2 is an essential mediator of mitogenic and cell survival signaling in breast cancer cells, we determined the effect of CNBCA treatment on activation of ERK1/2 and Akt in the HER2-positive BT474 and in the triple-negative MDA-MB468 cell lines. Cells growing in 2D culture were treated with varying concentrations of CNBCA, ranging from 0.250 to 2.0 μM, for 48 h, and total cell lysates were analyzed by immunoblotting (IB) with antibodies that recognize the activated forms of ERK1/2 (pERK1/2) and Akt (pAkt).

CCCCCCCCCOc1ccc(-c2ccc(C(=O)O)cc2)cc1CCCC(=O)O [CNBCA, 3′-(3-carboxypropyl)-4′-(nonyloxy)-[1,1′-biphenyl]-4-carboxylic acid]
IC50 (BT474, 48 h treatment, band density pAkt and pERK1/2, read-out: IC50 for SHP2 mediated Akt and ERK1/2 activation): ~1 µM
IC50 (BT474 cells, read-out: concentration that provided a 50% inhibition of SHP2 mediated signaling): 0.5 µM
